# Data taken from patent publication US8222244B2, “Staurosporine derivatives as inhibitors of FLT3 receptor tyrosine kinase activity” (Novartis AG, priority 2001, dated 2012).
# Biological target: T1, human Flt-3 (Homo sapiens, UniProt P36888)
# T1 construct: expresses the amino acid region amino acids 563-993 of the intra-cytoplasmic kinase domains of human Flt-3; made in house; host or cells: Sf9 insect cells (baculovirus, pFbacG01 donor vector)
# T1 sequence (P36888 563-993): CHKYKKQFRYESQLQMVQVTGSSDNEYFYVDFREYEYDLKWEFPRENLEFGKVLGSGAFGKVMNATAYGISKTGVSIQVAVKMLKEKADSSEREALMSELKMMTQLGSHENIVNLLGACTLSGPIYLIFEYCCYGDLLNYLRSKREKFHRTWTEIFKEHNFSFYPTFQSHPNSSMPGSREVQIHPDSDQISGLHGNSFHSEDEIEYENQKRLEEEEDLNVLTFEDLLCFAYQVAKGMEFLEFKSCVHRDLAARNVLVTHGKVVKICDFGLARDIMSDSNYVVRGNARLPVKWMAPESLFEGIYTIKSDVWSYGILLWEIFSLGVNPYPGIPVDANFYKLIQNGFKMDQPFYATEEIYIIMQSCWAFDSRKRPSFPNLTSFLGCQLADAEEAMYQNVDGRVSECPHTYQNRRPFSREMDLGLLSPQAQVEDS
# Assay: Tyrosine protein kinase assay with purified GST-Flt-3 (33P incorporation)
# Type: biochemical
# Details: at a 1.0 micromolar concentration
# Method: ATP into appropriate substrates.
# The coding sequences for the cytoplasmic domain of Flt-3 was amplified by PCR from human c-DNA libraries (Clontech). The amplified DNA fragments and the pFbacG01 vector were made compatible for ligation by digestion with BamH1 and Hind III. […] The production of the viruses, the expression of proteins in Sf9 cells and the purification of the GST-fused proteins were performed as following:
# (Generation of Bac- to Bac GST-fusion vectors); pFbacG01, pFbacGST2T and pFbacGSTx3 Bac-to-Bac™ donor vectors were generated from pAcG1, pAcG2T and pAcG3X respectively, which facilitate the expression of GST-fusion proteins with the possibility of cleavage with thrombin (pFbacGT2) or factor Xa (pFbacGSTx3) while pFbacG01 expresses no proteolytic cleavage site. These were generated in house by isolation of the DNA fragment containing the gene for GST with the C-terminal protease and restriction sites by restriction enzyme digestion of the relevant PharMingen baculovirus donor vector with EcoRV and EcoRI. This EcoRV/EcoRI fragment was ligated into the pFastBac1 vector which had been restriction digested with BamHI, blunt-ended by Klenow reaction and subsequently digested with EcoRI to generate a blunt-ended/EcoRI vector. (Production of virus); Transfer vectors containing the kinase domains were transfected into the DH10Bac cell line (GIBCO) and plated on selective agar plates. Colonies without insertion of the fusion sequence into the viral genome (carried by the bacteria) are blue. Single white colonies were picked and viral DNA (bacmid) isolated from the bacteria by standard plasmid purification procedures. Sf9 cells or Sf21 cells were then transfected in 25 cm^2 flasks with the viral DNA using Cellfectin reagent. (Determination of small scale protein expression in Sf9 cells); Virus containing media was collected from the transfected cell culture and used for infection to increase its titer. Virus containing media obtained after two rounds of infection was used for large-scale protein expression. For large-scale protein expression 100 cm^2 round tissue culture plates were seeded with 5×10^7 cells/plate and infected with 1 mL of virus-containing media (approx. 5 MOIs). After 3 days the cells were scraped off the plate and centrifuged at 500 rpm for 5 min. Cell pellets from 10-20, 100 cm^2 plates, were resuspended in 50 mL of ice-cold lysis buffer (25 mMTris-HCl, pH7.5, 2 mMEDTA, 1% NP-40, 1 mM DTT, 1 mMP MSF). The cells were stirred on ice for 15 min and then centrifuged at 5000 rpms for 20 min.
# ATP 0.1 μCi). […] ATP into appropriate substrates. […] Subsequently, 40 μL of the reaction mixture were transferred onto Immobilon-PVDF membrane (Millipore, Bedford, Mass., USA) previously soaked for 5 min with methanol, rinsed with water, then soaked for 5 min with 0.5% H3PO4 and mounted on vacuum manifold with disconnected vacuum source. After spotting all samples, vacuum was connected and each well rinsed with 200 μL 0.5% H3PO4. Membranes were removed and washed 4× on a shaker with 1.0% H3PO4, once with ethanol. Membranes were counted after drying at ambient temperature, mounting in Packard TopCount 96-well frame, and addition of 10 μL/well of Microscint™ (Packard). […] One unit of protein kinase activity is defined as 1 nmole of ^33P ATP transferred from [γ^33P] ATP to the substrate protein per minute per mg of protein at 37° C.
row,Flt3 Inhibition (percent inhibition of Flt3 kinase activity) [%],Molecule
1,66,"11-[[N-Acetyl-1-O-methyl-4,6-O-(phenylmethylene)-a-normuramoyl]methylamino]-2,3,10,11,12,13-hexahydro-10-methoxy-9-methyl-9,13-epoxy-1H,9H-diindolo[1,2,3-gh:3′,2′,1′-lm]pyrrolo[3,4-j][1,7]benzodiazonin-1-one [149622-43-5]"
2,74,"11-[[N-Acetyl-1-deoxy-4,6-O-(phenylmethylene)muramoyl]methylamino]-2,3,10,11,12,13-hexahydro-10-methoxy-9-methyl-9,13-epoxy-1H,9H-diindolo[1,2,3-gh:3′,2′,1′-lm]pyrrolo[3,4-j][1,7]benzodiazonin-1-one [149622-49-1]"
3,60,"COC1C(N(C)C(=O)c2cccc(F)c2)CC2OC1(C)n1c3ccccc3c3c4c(c5c6ccccc6n2c5c31)C(=O)NC4 (stereo not drawn) [120685-16-7, (9a,10b,11b,13a)-3-Fluoro-N-(2,3,10,11,12,13-hexahydro-10-methoxy-9-methyl-1-oxo-9,13-epoxy-1H,9H-diindolo[1,2,3-gh:3′,2′,1′-lm]pyrrolo[3,4-j][1,7]benzodiazonin-11-yl)-N-methyl-benzamide]"
4,33,"CO[C@@H]1[C@H](N(C)C(=O)OC(C)(C)C)C[C@H]2O[C@]1(C)n1c3ccccc3c3c4c(c5c6ccccc6n2c5c31)C(=O)NC4 [120685-17-8, [9S-(9a,10b,11b,13a)]-(2,3,10,11,12,13-Hexahydro-10-methoxy-9-methyl-1-oxo-9,13-epoxy-1H,9H-diindolo[1,2,3-gh:3′,2′,1′-lm]pyrrolo[3,4-j][1,7]benzodiazonin-11-yl)methyl-carbamic acid, 1,1-dimethylethyl ester]"
5,63,"COC1C(N(C)C(=O)c2cc([N+](=O)[O-])cc([N+](=O)[O-])c2)CC2OC1(C)n1c3ccccc3c3c4c(c5c6ccccc6n2c5c31)C(=O)NC4 (stereo not drawn) [120685-18-9, [9S-(9a,10b,11b,13a)]-N-(2,3,10,11,12,13-Hexahydro-10-methoxy-9-methyl-1-oxo-9,13-epoxy-1H,9H-diindolo[1,2,3-gh:3′,2′,1′-lm]pyrrolo[3,4-j][1,7]benzodiazonin-11-yl)-N-methyl-3,5-dinitro-benzamide]"
6,98,"COC1C(N(C)CC(=O)O)CC2OC1(C)n1c3ccccc3c3c4c(c5c6ccccc6n2c5c31)C(=O)NC4 (stereo not drawn) [120685-22-5, [9S-(9a,10b,11b,13a)]-N-(2,3,10,11,12,13-Hexahydro-10-methoxy-9-methyl-1-oxo-9,13-epoxy-1H,9H-diindolo[1,2,3-gh:3′,2′,1′-lm]pyrrolo[3,4-j][1,7]benzodiazonin-11-yl)-N-methyl-glycine]"
7,100,"CC[N+](C)(C)C1CC2OC(C)(C1OC)n1c3ccccc3c3c4c(c5c6ccccc6n2c5c31)C(=O)NC4.[I-] (stereo not drawn) [120685-28-1, N-Ethyl-[9S-(9a,10b,11b,13a)]-2,3,10,11,12,13-hexahydro-10-methoxy-N,N,9-trimethyl-1-oxo-9,13-epoxy-1H,9H-diindolo[1,2,3-gh:3′,2′,1′-lm]pyrrolo[3,4-j][1,7]benzodiazonin-11-aminium iodide]"
8,55,"COC1C(N(C)C(=O)c2ccc(F)cc2)CC2OC1(C)n1c3ccccc3c3c4c(c5c6ccccc6n2c5c31)C(=O)NC4 (stereo not drawn) [120685-44-1, (9a,10b,11b,13a)-4-Fluoro-N-(2,3,10,11,12,13-hexahydro-10-methoxy-9-methyl-1-oxo-9,13-epoxy-1H,9H-diindolo[1,2,3-gh:3′,2′,1′-lm]pyrrolo[3,4-j][1,7]benzodiazonin-11-yl)-N-methyl-benzamide]"

# Continued, molecule first:
row,Molecule,Flt3 Inhibition (percent inhibition of Flt3 kinase activity) [%]
1,"CO[C@@H]1[C@H](N(C)C(=O)CCC(=O)[O-])C[C@H]2O[C@]1(C)n1c3ccccc3c3c4c(c5c6ccccc6n2c5c31)C(=O)NC4.[Na+] [120685-10-1, [9S-(9a,10b,11b,13a)]-4-[(2,3,10,11,12,13-Hexahydro-10-methoxy-9-methyl-1-oxo-9,13-epoxy-1H,9H-diindolo[1,2,3-gh:3′,2′,1′-lm]pyrrolo[3,4-j][1,7]benzodiazonin-11-yl)methylamino]-4-oxo-butanoic acid, sodium salt]",98
2,"COC1C(N(C)C(=O)C(F)(F)F)CC2OC1(C)n1c3ccccc3c3c4c(c5c6ccccc6n2c5c31)C(=O)NC4 [120685-12-3, 2,2,2-Trifluoro-N-[(9S,10R,11R,13R)-2,3,10,11,12,13-hexahydro-10-methoxy-9-methyl-1-oxo-9,13-epoxy-1H,9H-diindolo[1,2,3-gh:3′,2′,1′-lm]pyrrolo[3,4-j][1,7]benzodiazonin-11-yl]-N-methyl-acetamide]",66
3,"CNC(=S)N(C)C1CC2OC(C)(C1OC)n1c3ccccc3c3c4c(c5c6ccccc6n2c5c31)C(=O)NC4 (stereo not drawn) [120685-13-4, (9a,10b,11b,13a)-N-(2,3,10,11,12,13-Hexahydro-10-methoxy-9-methyl-1-oxo-9,13-epoxy-1H,9H-diindolo[1,2,3-gh:3′,2′,1′-lm]pyrrolo[3,4-j][1,7]benzodiazonin-11-yl)-N,N′-dimethyl-thiourea]",91
4,"COC1C(N(C)C(=O)c2cccc([N+](=O)[O-])c2)CC2OC1(C)n1c3ccccc3c3c4c(c5c6ccccc6n2c5c31)C(=O)NC4 (stereo not drawn) [120685-15-6, (9a,10b,11b,13a)-N-(2,3,10,11,12,13-Hexahydro-10-methoxy-9-methyl-1-oxo-9,13-epoxy-1H,9H-diindolo[1,2,3-gh:3′,2′,1′-lm]pyrrolo[3,4-j][1,7]benzodiazonin-11-yl)-N-methyl-3-nitro-benzamide]",74
5,"COC(=O)CN(C)C1CC2OC(C)(C1OC)n1c3ccccc3c3c4c(c5c6ccccc6n2c5c31)C(=O)NC4 (stereo not drawn) [120685-21-4, [9S-(9a,10b,11b,13a)]-N-(2,3,10,11,12,13-Hexahydro-10-methoxy-9-methyl-1-oxo-9,13-epoxy-1H,9H-diindolo[1,2,3-gh:3′,2′,1′-lm]pyrrolo[3,4-j][1,7]benzodiazonin-11-yl)-N-methyl-glycine, methyl ester]",82
6,"COC1C([N+](C)(C)C)CC2OC1(C)n1c3ccccc3c3c4c(c5c6ccccc6n2c5c31)C(=O)NC4.[I-] (stereo not drawn) [120685-26-9, [9S-(9a,10b,11b,13a)]-2,3,10,11,12,13-Hexahydro-10-methoxy-N,N,N,9-tetramethyl-1-oxo-9,13-epoxy-1H,9H-diindolo[1,2,3-gh:3′,2′,1′-lm]pyrrolo[3,4-j][1,7]benzodiazonin-11-aminium iodide]",97
7,"C=CCNC(=S)N(C)C1CC2OC(C)(C1OC)n1c3ccccc3c3c4c(c5c6ccccc6n2c5c31)C(=O)NC4 (stereo not drawn) [120685-39-4, (9a,10b,11b,13a)-N-(2,3,10,11,12,13-Hexahydro-10-methoxy-9-methyl-1-oxo-9,13-epoxy-1H,9H-diindolo[1,2,3-gh:3′,2′,1′-lm]pyrrolo[3,4-j][1,7]benzodiazonin-11-yl)-N-methyl-N′-2-propenyl-thiourea]",93
